Values joined by “and” are separate entries in the source; they are usually repeats but may differ in a detail not shown here. Identical values can stand only once.
Tests used:
[1] = test system: DAOY medulloblastoma cells; experiment: DAOY medulloblastoma s.c. xenografts in SCID mice; assay type: in vivo; settings: treatment from day 6, by day 23
Experimental: DAOY medulloblastoma cells were implanted subcutaneously into the flanks of SCID mice. On day 6, mice were divided into 3 groups, one group receiving Compound 100, one group receiving Compound 102, and one group receiving vehicle alone. The subcutaneous tumor masses were measured on day 6, day 13, day 18, and on day 23 when all animals were sacrificed. […] In this model DAOY cells, when untreated, reached their maximum growth about 2 weeks after implantation with slow regression thereafterwards.

[2] = test system: human glioblastoma cell line, U373; experiment: U373 growth in culture for 7 days, Compound 100 with standard cytotoxic drugs; assay type: cell-based; settings: Compound 100 2.5 uM, cisplatin 0.1 uM, doxorubicin 0.01 uM, taxol 0.3 nM
Experimental: Cells were exposed to vehicle alone (control); Compound 100 at 2.5 uM; cisplatin at 0.1 uM; doxorubicin at 0.01 uM; or taxol at 0.3 nM alone or to the combination of Compound 100 plus each of the standard agents at the same concentrations. […] The expected percent inhibition at 7 days is the product of the inhibition by each agent alone.
Cells were exposed to vehicle alone (control); compound 100 at 2.5 μM, cisplatin at 0.1 μM; doxorubicin at 0.01 μM; or taxol at 0.3 nM alone or to the combination of compound 100 plus each of the standard agents at the same concentrations. […] The expected percent inhibition from a combination of drugs is calculated by multiplying the actual percent inhibition by each drug alone and comparing that product to the actual percent inhibition caused by the combination of the two drugs (Valeriote, 1975). The expected percent inhibition at 7 days is the product of the inhibition by each agent alone.

human cancer cell lines = experiment: Cancer cell proliferation in cell culture; assay type: cell-based
TCTP = TCTP in U87 xenografts by 2-dimensional gel electrophoresis; assay type: in vivo, SCID mice; settings: 1.5 mg/kg IP, 4 hours
Experimental: SCID mice were implanted with 5×10^6 U87 cells subcutaneously. On day 26, the mice were given 1.5 mg/kg Compound 100 by IP injection. The animals were sacrificed after 4 hours treatment and the subcutaneous mass of tumor cells were removed for 2-dimensional gel electrophoretic analysis. […] In the left panel, TCTP subsequently identified by LC-MS-MS is circled and shown in an enlargement of the gel.
SCID mice were implanted with 5 million U87 cells subcutaneously. On day 26, the mice were administered 1.5 mg/kg of compound 100 by intraperitoneal injection. The animals were sacrificed after 4 hours of treatment and the subcutaneous mass of tumor cells were removed for 2-dimensional gel electrophoretic analysis.

DAOY cells = experiment: Immunofluorescence of alpha-tubulin and Plk-1 in DAOY cells; assay type: cell-based, human; settings: 5 μM, 4 hours
Experimental: DAOY cells growing in tissue culture were exposed to 5 μM Compound 100 for 4 hours. The cells were rinsed, fixed, and stained for immunofluorescent recognition of alpha-tubulin and Plk-1. Control cells at the left show in the upper left panel diffuse staining for alpha-tubulin distributed throughout the cytoplasm. […] The lower right panel, stained for Plk-1, alpha-tubulin, and DNA show the almost pure extra nuclear location of homogeneously distributed alpha-tubulin. The right panel consists of 4 elements showing the effects of exposure to Compound 100.

[3] = test system: DAOY medulloblastoma cells; experiment: Western blot of DAOY cell lysates for TCTP, p-Plk, total Plk; assay type: cell-based, human
Experimental: DAOY cells in culture were exposed to Compound 100 for 4 hours and for 24 hours, and stained for TCTP, p-Plk and total Plk on western blots.
DAOY cells in culture were exposed to compound 100 for 4 hours and for 24 hours, and stained for TCTP, p-plk (phosphorylated plk), and total plk on western blots.

[4] = test system: U87 glioblastoma multiforme cells; experiment: U87 s.c. xenografts in SCID mice, Compound 100; assay type: in vivo; settings: treatment from day 7, measured to day 26
Experimental: SCID mice were implanted with 5×10^6 U87 cells subcutaneously. On day 7 treatment was begun on half of the animals. The size of the subcutaneous mass of tumor cells was measured weekly until the animals were sacrificed on day 26.

U373 cells [5] = experiment: Western blots of U373 cells; assay type: cell-based, human; settings: U373, 2 nM, 24 hours
Experimental: (§1) 5×10^6 U87MG cells were inoculated s.c. into each flank of 20 SCID mice. When the xenografts were 0.5+/−0.1 cm (day 0), 5 animals each received i.p. vehicle alone days 1-12 (50% DMSO/H20); compound 102 alone at 1.5 mg/kg days 1-3, 5-7, & 9-11; TMZ alone at 80 mg/kg days 4, 8, 12; or both drugs at the same doses and schedules. If xenografts reached 1800 mm^3, animals were sacrificed. […] B, Survival curve combining the data from the study shown in FIG. 12A, with a second identical study involving a total of 10 animals with two xenografts each. Disease-free survival was defined as no recurrence of either xenografts. […] As in 12A, except that xenografts of SH-SY5Y cells were implanted in one flank only and animals were treated with one additional cycle of drugs, i.e., compound 102 on days 13-15, TMZ, on day 16, and compound 102 plus TMZ on the same schedules. […] E, Western blots of U87 cells in culture 24 hours after exposure to compound 102 at 2.5 uM, TMZ at 25 uM or DOX at 2 uM, and compound 102 plus TMZ or DOX. F, Western blots of U373 cells 24 hours after exposure to compound 102 at 2.5 uM, doxorubicin at 2 uM, and both drugs. G, Western blots of U373 cells 24 hours after exposure to TMZ at 25 uM, okadaic acid at 2 nM, and both drugs.

U87MG xenografts = experiment: U87MG s.c. xenografts in SCID mice, compound 102 and TMZ; assay type: in vivo; settings: same doses and schedules
Experimental: as §1
To determine the impact of altering DNA-damage defense mechanisms by inhibiting PP2A on the efficacy of cytotoxic chemotherapy, the effects of compound 102 combined with TMZ, a non-specific DNA-methylating drug, routinely used for the palliative treatment of GBM patients (Prados et al, 2008), were studied. SCID mice bearing s.c. xenografts of either the GBM line U87MG or the neuroblastoma line SH-SY5Y were treated with vehicle alone, compound 102 alone, TMZ alone, or both drugs at the same doses and schedules as when given alone.

U87MG cells = experiment: Cellular and molecular changes in U87MG cells (Western blots, IFS); assay type: cell-based, human; settings: U87MG, 24 hours; compound 102 2.5 uM, TMZ 25 uM, DOX 2 uM
Experimental: D, Western blots of U87 lysates: TCTP, pPlk (Tre-210), total Plk, and β-actin. E, IFS of TCTP in U87 cells, F, Western blots p53 (ser-15), pMDM2 (ser-166), and β-actin and G, IFS of p53 (ser-15).
as §1
TCTP is an abundant, highly conserved, multifunctional protein that binds to and stabilizes microtubules before and after mitosis and also exerts potent anti-apoptotic activity (Bommer and Thiele, 2004; Yarm, 2002; Susini et al, 2008) (FIG. 11E).
[…] Akt-1 activation, however, may be anti- or proapoptotic depending on the context of cell signaling (Andrabi et al, 2007).
The effects of compound 102, TMZ, doxorubicin (DOX), a widely used anti-cancer drug that disrupts DNA replication, compound 102 plus TMZ, and compound 102 plus DOX on the amount of pAkt, p53 and MDM2 in U87MG, a cell line with wild-type p53, and in U373, a cell line with mutant p53 (Short et al, 2007) were assessed by Western blots.

U373 cells [6] = experiment: Cell cycle distribution of U373 cells by FACS; assay type: cell-based, human; settings: U373, 48 hours
Experimental: Cells in unsynchronized logarithmic growth were exposed to vehicle or drug and adherent cells and cells in the media were collected. Harvested cells were fixed with 70% cold ethanol for 20 min at −20 degrees, washed with PBS, and stained with 10 ug/ml of PI and 1 ug/ml RNAse in TBS for 30 minutes and analyzed by FACS. A, Flow cytometry profiles of U87 cells after exposures to DMSO only, compound 102 only, 5 uM; TMZ only, 25 uM; compound 102 with TMZ combination, doxorubicin only, 2.0 uM and compound 102 with doxorubicin combination. B, Flow cytometry profiles of U373 cells. Exposures as in A, and C, Schema of proposed mechanisms of compound 102 enhancement of cancer chemotherapy.
We analyzed cell cycle patterns of U87MG and U373 cells 48 hours after exposure to TMZ or DOX alone and in combination with compound 102.

CN1CCN(C(=O)C2C(C(=O)O)[C@H]3CC[C@@H]2O3)CC1 (some centres unmarked) [Compound 100]
DAOY subcutaneous tumor mass [1]: marked regression
inhibition at 7 days by agent alone [2]: 71%
inhibition of human cancer cell lines (human cancer cell lines; breast, colon, stomach, liver, ovary, prostate, brain, lung, leukemias, lymphomas): dose dependent inhibition
effect of higher doses on tumor cells (human cancer cell lines; higher doses): mitotic catastrophe and cell death
growth of tumor cells at non-inhibitory doses (human cancer cell lines; submicromolar to very low micromolar concentrations): slight but clear-cut stimulation
TCTP concentration in U87 xenografts (TCTP): diminution in TCTP
alpha-tubulin distribution (DAOY cells): marked distortion of the homogeneous distribution
Plk-1 phosphorylation (western blot) ([3]; 4 hours): increase
TCTP (western blot) ([3]; 4 hours): decrease
TCTP (western blot) ([3]; 24 hours): no TCTP is detectable
U87 subcutaneous xenograft growth [4]: Inhibition

C=C1[C@@H](O)[C@@H]2O[C@]3(CC[C@H](/C=C/[C@@H](C)[C@@H]4CC(C)=C[C@@]5(O[C@H](C[C@@](C)(O)C(=O)O)CC[C@H]5O)O4)O3)CC[C@H]2O[C@@H]1[C@@H](O)C[C@H](C)[C@H]1O[C@@]2(CCCCO2)CC[C@H]1C [Okadaic acid, okadaic acid, reference compound]
effects on pAkt-1 and on mutant p53 (U373 cells [5]): mimicked the effects of compound 102

Cn1nnc2c(C(N)=O)ncn2c1=O [TMZ, temozolomide, reference compound]
time of sacrifice (xenografts reached 1800 mm^3) (U87MG xenografts): 7-9 week

N.N.[Cl][Pt][Cl] [cisplatin]
inhibition at 7 days by agent alone [2]: 93.5% and 93%

COc1cccc2c1C(=O)c1c(O)c3c(c(O)c1C2=O)C[C@@](O)(C(=O)CO)C[C@@H]3O[C@H]1C[C@H](N)[C@H](O)[C@H](C)O1 [doxorubicin, reference compound]
MDM2 (U87MG cells): little effect
p53 (U87MG cells): increased
pAkt-1 (U87MG cells): decreased
G1 phase cells (U373 cells [6]; compound 102 5 uM, TMZ 25 uM, doxorubicin 2.0 uM): reduced
G2/M phase cells (U373 cells [6]; same concentrations): reduced
S phase cells (U373 cells [6]; same concentrations): greatly increased
